Source: ChEMBL document CHEMBL4507294, “Data for DCP probe MSD-CYP11B2” (2021)

Key:
[1] = biological target: Receptor-interacting serine/threonine-protein kinase 4 (Homo sapiens) (UniProt P57078); details: Compound concentration 1000.0 nM
[2] = biological target: Casein kinase II subunit alpha (Homo sapiens) (UniProt P68400); details: Compound concentration 1000.0 nM
[3] = biological target: Ephrin type-A receptor 4 (Homo sapiens) (UniProt P54764); details: Compound concentration 1000.0 nM
[4] = biological target: Muscarinic acetylcholine receptor M5 (Homo sapiens) (UniProt P08912); details: Compound concentration 10.0 uM
[5] = biological target: Calcium/calmodulin-dependent protein kinase kinase 1 (Homo sapiens) (UniProt Q8N5S9); details: Compound concentration 1000.0 nM
[6] = tested on: Tyrosine-protein kinase ABL1 (Homo sapiens), P00519 [T315I]; details: Compound concentration 1000.0 nM
[7] = biological target: MAP kinase-activated protein kinase 5 (Homo sapiens) (UniProt Q8IW41); details: Compound concentration 1000.0 nM
Sequence of MAP kinase-activated protein kinase 5 (Homo sapiens) (Q8IW41 whole entry): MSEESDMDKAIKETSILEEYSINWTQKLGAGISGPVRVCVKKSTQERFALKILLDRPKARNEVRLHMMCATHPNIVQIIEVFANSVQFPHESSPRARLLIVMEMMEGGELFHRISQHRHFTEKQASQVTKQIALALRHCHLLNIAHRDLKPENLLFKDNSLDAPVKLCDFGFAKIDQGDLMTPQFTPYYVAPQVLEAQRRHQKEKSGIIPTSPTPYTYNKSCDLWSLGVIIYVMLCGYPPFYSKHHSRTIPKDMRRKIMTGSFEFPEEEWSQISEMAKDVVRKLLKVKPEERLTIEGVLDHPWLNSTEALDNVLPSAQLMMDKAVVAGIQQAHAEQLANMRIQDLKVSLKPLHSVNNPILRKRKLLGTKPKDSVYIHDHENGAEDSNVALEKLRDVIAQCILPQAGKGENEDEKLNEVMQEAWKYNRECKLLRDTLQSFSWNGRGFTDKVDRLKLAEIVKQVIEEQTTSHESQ

[8] = biological target: Mitogen-activated protein kinase kinase kinase 1 (Homo sapiens) (UniProt Q13233); details: Compound concentration 1000.0 nM
[9] = biological target: Beta-2 adrenergic receptor (Homo sapiens) (UniProt P07550); details: Compound concentration 10.0 uM
[10] = tested on: Tyrosine-protein kinase ABL1 (Homo sapiens), P00519 [T315I]; details: Compound concentration 1000.0 nM; remark: listed apart in the source
[11] = biological target: Beta-adrenergic receptor kinase 1 (Homo sapiens) (UniProt P25098); details: Compound concentration 1000.0 nM
[12] = biological target: Serine/threonine-protein kinase MRCK beta (Homo sapiens) (UniProt Q9Y5S2); details: Compound concentration 1000.0 nM
[13] = biological target: Mast/stem cell growth factor receptor Kit (Homo sapiens) (UniProt P10721); details: Compound concentration 1000.0 nM
[14] = biological target: cGMP-dependent protein kinase 2 (Homo sapiens) (UniProt Q13237); details: Compound concentration 1000.0 nM
[15] = biological target: Serine/threonine-protein kinase SIK3 (Homo sapiens) (UniProt Q9Y2K2); details: Compound concentration 1000.0 nM
Sequence of Serine/threonine-protein kinase SIK3 (Homo sapiens) (Q9Y2K2 whole entry, looked up): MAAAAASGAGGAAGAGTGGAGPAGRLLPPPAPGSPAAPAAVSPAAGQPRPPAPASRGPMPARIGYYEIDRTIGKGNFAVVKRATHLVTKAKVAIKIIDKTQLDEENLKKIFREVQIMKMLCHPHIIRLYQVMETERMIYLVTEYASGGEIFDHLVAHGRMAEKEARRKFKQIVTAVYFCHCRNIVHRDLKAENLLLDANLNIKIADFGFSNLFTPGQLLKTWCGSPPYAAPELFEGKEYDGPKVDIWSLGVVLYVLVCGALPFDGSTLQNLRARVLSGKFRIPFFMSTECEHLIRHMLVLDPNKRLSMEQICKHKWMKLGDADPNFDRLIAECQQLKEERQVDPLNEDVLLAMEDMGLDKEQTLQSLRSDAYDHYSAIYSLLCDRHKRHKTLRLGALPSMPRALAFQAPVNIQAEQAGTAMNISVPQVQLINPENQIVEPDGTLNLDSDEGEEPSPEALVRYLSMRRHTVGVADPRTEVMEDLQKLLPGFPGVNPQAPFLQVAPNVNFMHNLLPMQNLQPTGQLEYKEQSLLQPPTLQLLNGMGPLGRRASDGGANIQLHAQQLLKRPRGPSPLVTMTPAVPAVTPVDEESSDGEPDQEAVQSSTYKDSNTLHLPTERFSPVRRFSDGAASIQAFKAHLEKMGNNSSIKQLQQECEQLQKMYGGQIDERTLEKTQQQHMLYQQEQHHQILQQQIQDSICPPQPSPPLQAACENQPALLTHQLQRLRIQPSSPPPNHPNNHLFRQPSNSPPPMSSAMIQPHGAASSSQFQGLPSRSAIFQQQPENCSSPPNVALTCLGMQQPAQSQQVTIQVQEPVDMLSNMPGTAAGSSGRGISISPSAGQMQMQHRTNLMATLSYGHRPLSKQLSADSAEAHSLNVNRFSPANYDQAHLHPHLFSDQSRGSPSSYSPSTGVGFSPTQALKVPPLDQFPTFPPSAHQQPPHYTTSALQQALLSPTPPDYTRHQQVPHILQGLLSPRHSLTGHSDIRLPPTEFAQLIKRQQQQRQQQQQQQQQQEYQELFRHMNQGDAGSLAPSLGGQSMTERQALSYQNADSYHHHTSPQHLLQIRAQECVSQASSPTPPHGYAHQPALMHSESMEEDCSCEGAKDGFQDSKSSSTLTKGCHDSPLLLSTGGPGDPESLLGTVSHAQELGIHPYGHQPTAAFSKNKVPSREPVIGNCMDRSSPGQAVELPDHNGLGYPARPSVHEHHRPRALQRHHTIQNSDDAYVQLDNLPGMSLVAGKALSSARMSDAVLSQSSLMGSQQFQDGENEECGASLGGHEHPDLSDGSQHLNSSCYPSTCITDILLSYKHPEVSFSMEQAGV

[16] = biological target: High affinity nerve growth factor receptor (Homo sapiens) (UniProt P04629); details: Compound concentration 1000.0 nM
[17] = biological target: Tyrosine-protein kinase receptor Tie-1 (Homo sapiens) (UniProt P35590); details: Compound concentration 1000.0 nM
Sequence of Tyrosine-protein kinase receptor Tie-1 (Homo sapiens) (P35590 whole entry): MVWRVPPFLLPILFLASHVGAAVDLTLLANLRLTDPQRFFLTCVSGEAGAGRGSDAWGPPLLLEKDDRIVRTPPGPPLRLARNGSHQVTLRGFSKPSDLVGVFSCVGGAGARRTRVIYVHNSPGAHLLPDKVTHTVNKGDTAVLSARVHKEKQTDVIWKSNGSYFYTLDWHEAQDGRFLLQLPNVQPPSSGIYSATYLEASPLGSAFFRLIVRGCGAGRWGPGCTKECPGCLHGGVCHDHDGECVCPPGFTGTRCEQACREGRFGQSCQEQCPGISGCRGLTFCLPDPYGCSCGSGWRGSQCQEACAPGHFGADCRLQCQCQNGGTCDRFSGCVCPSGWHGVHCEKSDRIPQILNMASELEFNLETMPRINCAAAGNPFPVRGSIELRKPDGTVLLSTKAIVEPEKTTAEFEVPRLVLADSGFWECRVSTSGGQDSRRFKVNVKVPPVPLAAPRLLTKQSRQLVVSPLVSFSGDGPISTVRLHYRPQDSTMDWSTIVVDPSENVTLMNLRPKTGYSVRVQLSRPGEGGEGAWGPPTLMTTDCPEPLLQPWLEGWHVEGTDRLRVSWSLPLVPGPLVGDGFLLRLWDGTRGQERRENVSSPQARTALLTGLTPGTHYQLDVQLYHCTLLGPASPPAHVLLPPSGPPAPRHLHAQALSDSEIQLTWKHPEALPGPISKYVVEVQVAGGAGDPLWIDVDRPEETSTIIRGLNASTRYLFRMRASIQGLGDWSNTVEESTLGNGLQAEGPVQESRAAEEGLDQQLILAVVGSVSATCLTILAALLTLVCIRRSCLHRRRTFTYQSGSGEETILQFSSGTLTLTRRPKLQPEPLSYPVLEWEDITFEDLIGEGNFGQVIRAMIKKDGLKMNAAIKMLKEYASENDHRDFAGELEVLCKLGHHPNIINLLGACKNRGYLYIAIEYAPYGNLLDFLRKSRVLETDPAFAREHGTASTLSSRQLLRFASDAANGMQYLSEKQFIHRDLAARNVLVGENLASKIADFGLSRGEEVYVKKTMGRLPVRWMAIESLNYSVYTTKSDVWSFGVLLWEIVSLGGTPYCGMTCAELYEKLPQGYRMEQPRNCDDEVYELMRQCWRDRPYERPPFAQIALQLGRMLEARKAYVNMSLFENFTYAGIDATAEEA

[18] = biological target: Tyrosine-protein kinase Srms (Homo sapiens) (UniProt Q9H3Y6); details: Compound concentration 1000.0 nM
[19] = biological target: Fibroblast growth factor receptor 1 (Homo sapiens) (UniProt P11362); details: Compound concentration 1000.0 nM
[20] = biological target: Serine/threonine-protein kinase 17B (Homo sapiens) (UniProt O94768); details: Compound concentration 1000.0 nM
[21] = biological target: Cyclin-dependent kinase 13 (Homo sapiens) (UniProt Q14004); details: Compound concentration 1000.0 nM
[22] = tested on: Phosphatidylinositol 4,5-bisphosphate 3-kinase catalytic subunit alpha isoform (Homo sapiens), P42336 [H1047Y]; details: Compound concentration 1000.0 nM
[23] = biological target: Protein-tyrosine kinase 6 (Homo sapiens) (UniProt Q13882); details: Compound concentration 1000.0 nM
[24] = biological target: Alpha-2A adrenergic receptor (Homo sapiens) (UniProt P08913); details: Compound concentration 10.0 uM
[25] = biological target: Phosphatidylinositol 5-phosphate 4-kinase type-2 beta (Homo sapiens) (UniProt P78356); details: Compound concentration 1000.0 nM
[26] = biological target: Phosphatidylinositol 4,5-bisphosphate 3-kinase catalytic subunit delta isoform (Homo sapiens) (UniProt O00329); details: Compound concentration 1000.0 nM
[27] = biological target: Activin receptor type-2A (Homo sapiens) (UniProt P27037); details: Compound concentration 1000.0 nM
[28] = biological target: cAMP-dependent protein kinase catalytic subunit PRKX (Homo sapiens) (UniProt P51817); details: Compound concentration 1000.0 nM
[29] = biological target: Mitogen-activated protein kinase kinase kinase 13 (Homo sapiens) (UniProt O43283); details: Compound concentration 1000.0 nM
[30] = biological target: Homeodomain-interacting protein kinase 3 (Homo sapiens) (UniProt Q9H422); details: Compound concentration 1000.0 nM
[31] = tested on: Epidermal growth factor receptor (Homo sapiens), P00533 [UNDEFINED MUTATION]; details: Compound concentration 1000.0 nM
[32] = biological target: Receptor-interacting serine/threonine-protein kinase 1 (Homo sapiens) (UniProt Q13546); details: Compound concentration 1000.0 nM
[33] = biological target: Atypical kinase COQ8B, mitochondrial (Homo sapiens) (UniProt Q96D53); details: Compound concentration 1000.0 nM
[34] = biological target: Serine/threonine-protein kinase Nek1 (Homo sapiens) (UniProt Q96PY6); details: Compound concentration 1000.0 nM
[35] = biological target: Muscle, skeletal receptor tyrosine-protein kinase (Homo sapiens) (UniProt O15146); details: Compound concentration 1000.0 nM
Sequence of Muscle, skeletal receptor tyrosine-protein kinase (Homo sapiens) (O15146 whole entry): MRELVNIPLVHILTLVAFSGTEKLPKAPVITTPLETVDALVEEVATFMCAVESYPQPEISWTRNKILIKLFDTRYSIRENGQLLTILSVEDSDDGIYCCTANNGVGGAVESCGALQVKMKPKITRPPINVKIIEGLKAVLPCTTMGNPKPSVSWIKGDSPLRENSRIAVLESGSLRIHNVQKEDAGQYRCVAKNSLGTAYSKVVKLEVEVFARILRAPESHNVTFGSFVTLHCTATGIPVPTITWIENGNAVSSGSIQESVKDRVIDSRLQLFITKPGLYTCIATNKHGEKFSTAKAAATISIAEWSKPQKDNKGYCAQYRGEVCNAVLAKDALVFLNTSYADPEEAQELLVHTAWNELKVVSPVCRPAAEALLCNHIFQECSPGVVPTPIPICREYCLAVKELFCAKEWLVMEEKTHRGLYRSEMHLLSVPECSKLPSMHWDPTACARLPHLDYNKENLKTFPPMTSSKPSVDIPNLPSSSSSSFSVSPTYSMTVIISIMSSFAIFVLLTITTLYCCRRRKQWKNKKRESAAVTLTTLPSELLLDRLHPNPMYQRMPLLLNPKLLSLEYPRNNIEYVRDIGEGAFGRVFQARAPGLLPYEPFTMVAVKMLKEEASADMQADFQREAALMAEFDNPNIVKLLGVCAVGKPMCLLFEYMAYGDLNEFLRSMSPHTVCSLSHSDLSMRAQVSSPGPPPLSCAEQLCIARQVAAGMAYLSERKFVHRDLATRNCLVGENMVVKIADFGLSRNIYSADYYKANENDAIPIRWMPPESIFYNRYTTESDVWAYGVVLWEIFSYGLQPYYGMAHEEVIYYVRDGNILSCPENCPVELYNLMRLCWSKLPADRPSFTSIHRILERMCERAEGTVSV

[36] = biological target: Serine/threonine-protein kinase Nek6 (Homo sapiens) (UniProt Q9HC98); details: Compound concentration 1000.0 nM
Sequence of Serine/threonine-protein kinase Nek6 (Homo sapiens) (Q9HC98 whole entry): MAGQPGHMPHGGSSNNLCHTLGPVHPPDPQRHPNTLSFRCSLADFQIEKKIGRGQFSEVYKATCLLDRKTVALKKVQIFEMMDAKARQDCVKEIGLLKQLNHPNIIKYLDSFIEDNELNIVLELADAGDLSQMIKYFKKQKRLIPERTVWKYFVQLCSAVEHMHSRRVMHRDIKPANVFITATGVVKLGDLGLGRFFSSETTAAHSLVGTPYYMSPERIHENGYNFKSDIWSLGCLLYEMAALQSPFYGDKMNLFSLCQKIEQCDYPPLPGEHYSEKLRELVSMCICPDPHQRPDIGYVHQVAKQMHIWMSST

[37] = biological target: Tyrosine-protein kinase ABL1 (Homo sapiens) (UniProt P00519); details: Compound concentration 1000.0 nM
[38] = biological target: Serine/threonine-protein kinase RIO2 (Homo sapiens) (UniProt Q9BVS4); details: Compound concentration 1000.0 nM
[39] = biological target: Tyrosine-protein kinase Lck (Homo sapiens) (UniProt P06239); details: Compound concentration 1000.0 nM
[40] = biological target: Serine/threonine-protein kinase 32C (Homo sapiens) (UniProt Q86UX6); details: Compound concentration 1000.0 nM
Sequence of Serine/threonine-protein kinase 32C (Homo sapiens) (Q86UX6 whole entry): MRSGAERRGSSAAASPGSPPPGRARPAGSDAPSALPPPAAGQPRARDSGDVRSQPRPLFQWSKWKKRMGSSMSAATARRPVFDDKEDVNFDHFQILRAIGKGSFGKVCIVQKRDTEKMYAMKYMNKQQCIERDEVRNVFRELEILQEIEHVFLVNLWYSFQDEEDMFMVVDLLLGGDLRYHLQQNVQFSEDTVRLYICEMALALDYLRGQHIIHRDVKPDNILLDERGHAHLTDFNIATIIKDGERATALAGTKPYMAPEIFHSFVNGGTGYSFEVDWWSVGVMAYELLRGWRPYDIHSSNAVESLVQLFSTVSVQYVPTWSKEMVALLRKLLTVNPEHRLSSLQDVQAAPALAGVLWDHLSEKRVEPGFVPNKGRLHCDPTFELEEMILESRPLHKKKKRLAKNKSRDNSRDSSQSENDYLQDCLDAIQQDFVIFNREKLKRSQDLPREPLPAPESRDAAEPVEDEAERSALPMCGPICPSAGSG

[41] = biological target: Alpha-1B adrenergic receptor (Homo sapiens) (UniProt P35368); details: Compound concentration 10.0 uM
[42] = biological target: GABA-A receptor; anion channel (Rattus norvegicus) (UniProt O09028+P15431+P18506+P18508+P19969+P20236+P23574+P23576+P28471+P28473+P30191+P62813+P63079+P63138+Q91ZM7+Q9ES14); details: Compound concentration 10.0 uM
[43] = biological target: Phosphatidylinositol 4-phosphate 5-kinase type-1 alpha (Homo sapiens) (UniProt Q99755); details: Compound concentration 1000.0 nM

Sequence of Casein kinase II subunit alpha (Homo sapiens) (P68400 whole entry, looked up): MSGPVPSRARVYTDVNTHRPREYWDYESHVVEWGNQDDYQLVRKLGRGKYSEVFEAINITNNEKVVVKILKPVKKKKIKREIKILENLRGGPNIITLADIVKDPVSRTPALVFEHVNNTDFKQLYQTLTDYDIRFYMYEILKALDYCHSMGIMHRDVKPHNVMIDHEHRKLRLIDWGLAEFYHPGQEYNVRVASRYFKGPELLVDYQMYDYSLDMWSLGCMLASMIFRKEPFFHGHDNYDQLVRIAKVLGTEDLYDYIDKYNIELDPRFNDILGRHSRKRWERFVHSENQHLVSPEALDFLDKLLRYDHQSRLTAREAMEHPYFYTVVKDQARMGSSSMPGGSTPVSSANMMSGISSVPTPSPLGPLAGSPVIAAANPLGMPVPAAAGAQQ

Compound: FC(F)(F)c1ccc2c(c1)nc(-c1cccnc1)n2C1CC1 [MSD-CYP11B2-Negative-control]
- residual activity [1]: 95%
- residual activity [2]: 100%
- residual activity [3]: 100%
- inhibition [4]: -6.15%
- residual activity [5]: 100%
- residual activity [6]: 100%
- residual activity [7]: 97%
- residual activity [8]: 100%
- inhibition [9]: 1.56%
- residual activity [10]: 100%
- residual activity [11]: 100%
- residual activity [12]: 100%
- residual activity [13]: 100%
- residual activity [14]: 78%
- residual activity [15]: 100%
- residual activity [16]: 100%
- residual activity [17]: 100%
- residual activity [18]: 95%
- residual activity [19]: 100%
- residual activity [20]: 100%
- residual activity [21]: 100%
- residual activity [22]: 78%
- residual activity [23]: 100%
- inhibition [24]: 6.92%
- residual activity [25]: 82%
- residual activity [26]: 81%
- residual activity [27]: 100%
- residual activity [28]: 100%
- residual activity [29]: 100%
- residual activity [30]: 100%
- residual activity [31]: 100%
- residual activity [32]: 100%
- residual activity [33]: 100%
- residual activity [34]: 100%
- residual activity [35]: 100%
- residual activity [36]: 100%
- residual activity [37]: 97%
- residual activity [38]: 100%
- residual activity [39]: 100%
- residual activity [40]: 100%
- inhibition [41]: 11.7%
- inhibition [42]: 2.02%
- residual activity [43]: 71%

Compound: CC(C)(O)c1cncc(-c2nc3ccc(F)cc3n2C2CC2)c1 [MSD-CYP11B2]
- residual activity [1]: 100%
- residual activity [2]: 100%
- residual activity [3]: 100%
- inhibition [4]: -2.81%
- residual activity [5]: 100%
- residual activity [6]: 100%
- residual activity [7]: 100%
- residual activity [8]: 100%
- inhibition [9]: 2.65%
- residual activity [10]: 100%
- residual activity [11]: 100%
- residual activity [12]: 100%
- residual activity [13]: 100%
- residual activity [14]: 90%
- residual activity [15]: 97%
- residual activity [16]: 100%
- residual activity [17]: 100%
- residual activity [18]: 100%
- residual activity [19]: 100%
- residual activity [20]: 77%
- residual activity [21]: 96%
- residual activity [22]: 90%
- residual activity [23]: 100%
- inhibition [24]: 74.6%
- residual activity [25]: 99%
- residual activity [26]: 100%
- residual activity [27]: 87%
- residual activity [28]: 100%
- residual activity [29]: 100%
- residual activity [30]: 93%
- residual activity [31]: 100%
- residual activity [32]: 100%
- residual activity [33]: 100%
- residual activity [34]: 100%
- residual activity [35]: 100%
- residual activity [36]: 100%
- residual activity [37]: 98%
- residual activity [38]: 100%
- residual activity [39]: 100%
- residual activity [40]: 100%
- inhibition [41]: 23.8%
- inhibition [42]: 16.6%
- residual activity [43]: 76%
